Values joined by “and” are separate entries in the source; they are usually repeats but may differ in a detail not shown here. Equal entries are not always repeated.
Assays:
[1] = system: murine renal cell carcinoma (RENCA) tumor cells applied orthotopically; assay: Example 5: orthotopic RENCA model, late treatment from Day 10; assay type: in vivo, Balb/c mouse; settings: for Kidney weight / Lung weight / Number of intestinal lymph node metastases / Number of lung metastases (late treatment day 10-14) / Kidney volume: day 18, individual animals; for Vessel density, later start of treatment day 10-14: individual sections
Experimental: The tests were carried out on a murine renal cell carcinoma model (RENCA) of the Balb/c mouse. The tumor cells were applied orthotopically into the left-hand renal capsule of syngenic mice. The effect of the treatment carried out on a primary tumor (in the implanted kidney), metastases (predominantly in the lungs, spleen and intestinal lymph nodes) and vessel density were investigated.
After anesthesia by means of isoflurane narcosis (O2— flow approx. 2.0 l with 0.5-1.5% isoflurane) a small incision was made in the mouse's left flank. The kidney was prepared and presented free from the peritoneum. A 27 G needle was introduced via the lower kidney pole through to below the renal capsule with visual inspection, and […] in 70 μl aliquots respectively applied once. The occurrence of a visible liquid-filled blister between kidney parenchyma and renal capsule and the discoloration of the kidneys were regarded as criteria for successful application. The kidney was subsequently reset and the incision into the abdominal wall closed by means of fascia stitches and cutaneous stitches with absorbable stitching material. Five test groups with ten animals respectively were formed. Group 1 negative control, group 2 positive control melphalan (Glaxo), group 3 and 4 MOC melphalan 2.5 mg/kg and 5 mg/kg. In the case of group 5 an antiangiogenically effective substance was applied as the positive control. The start of treatment was fixed for day 1 post op. for Cu(melphalan)2. Treatment was carried out daily up to day seven (see treatment model). The test was ended after 19 days since, owing to their size, the control tumors required termination for ethical reasons.
After selecting the animals the tissues to be examined were quickly transferred into liquid nitrogen and then frozen at −80° C. 5-10 μm thick sections were prepared from the tissue parts. The preparations were immunohistochemically dyed with an anti-CD31 antibody (Pecam-1) and the number of vessels in the control and treatment groups counted. Two sections of each tumor with three areas respectively were used for counting the vessels.
The study report matches that of Example 4, differing only in terms of treatment intervals and dose groups. Four test groups with ten animals respectively were formed. Group 1 negative control, group 2 positive control melphalan (Glaxo), groups 3 and 4 Cu(melphalan)2 5 mg/kg and 7.5 mg/kg. The start of treatment was fixed for day 10 post op. for all groups. The intention was for daily treatment from day 10 until day 17 (see treatment model). Owing to toxicities the treatment period was reduced to day 10-14. After 18 days the test was ended since, owing to their size, the control tumors required termination for ethical reasons.
• The implantation day was counted as day 0. • Duration of the test 18 days. • Number of animals at beginning of test 40; no animals died during the op.

OVCAR-3/P19 tumor cells = assay: Example 6: NOD/SCID mice s.c. injected with OVCAR-3 tumor cells; assay type: in vivo, female NOD/SCID mice; parameters: Vol (tumor volume) Day 20 / Vol (tumor volume) Day 30 / Vol (tumor volume) Day 37: unit: cm^3
Experimental: 2×10^6 OVCAR-3/P19 tumor cells were s.c. injected into female NOD/SCID mice. The mice were treated as follows.
The treatment began with a mean tumor volume of 80 mm^3.
To level possible differences in tumor volume at the start of treatment in the individual groups and to make evident differences owing to the low absolute volumes in the treatment groups, the relative tumor volumes (RTV) have been analyzed. The relative tumor volume results from the ratio of the volume on day x and the tumor volume at the start of treatment in the same test animal. […] The tumor growth was stopped in group 2 after just 7 days. After 3 days of constant tumor volume a tumor regression began from day 30 (10th day of treatment) in the test animals treated with copper-melphalan.

[2] = Cu(melphalan)2 8.8 μmol/kg (5 mg/kg) i.p. Day 10-14
[3] = Cu(melphalan)2 13.2 μmol/kg (7.5 mg/kg/d) i.p. Day 10-14
[4] = Gr. 3, 7.5 mg/kg copper-melphalan i.p., individual animals
[5] = Gr. 3, 7.5 mg/kg copper-melphalan i.p., n = 8
[6] = Gr. 3, 7.5 mg/kg copper-melphalan i.p., n = 8, baseline
[7] = Gr. 3, 7.5 mg/kg copper-melphalan vs 5 mg/kg melphalan

With N[C@@H](Cc1ccc(N(CCCl)CCCl)cc1)C(=O)[O-].N[C@@H](Cc1ccc(N(CCCl)CCCl)cc1)C(=O)[O-].O.O.[Cu+2] [Cu(melphalan)2] the Kidney weight [1, 2] was 1.70 gr and 1.78 gr (2×) and 1.88 gr and 1.23 gr and 0.75 gr and 1.56 gr, the Lung weight [1, 2] was 0.11 gr (2×) and 0.14 gr and 0.15 gr and 0.13 gr (2×) and 0.21 gr and the “Number of intestinal lymph node metastases” value [1, 2] was 20 and 40 and 36 and 12 and 64 and 51 and 75. The “Number of lung metastases (late treatment day 10-14)” value [1, 2] was 28 and 0 (2×) and 21 and 345 and 431 and 750, the “Vessel density, later start of treatment day 10-14” value [1, 2] was 44 (2×) and 38 and 34 and 56 (2×) and 46 and 26 and 51 and 72 and 25 and 35 and 40 and 31 and the Kidney volume ([1]; Cu(melphalan)2 8.8 μmol/kg (5 mg/kg) i.p. from Day 10 (planned 10-17, reduced to 10-14)) was 3.12 cm^3 and 2.60 cm^3 and 2.63 cm^3 and 2.08 cm^3 and 2.90 cm^3 and 1.96 cm^3 and 2.76 cm^3. For the same compound, the Kidney weight [1, 3] was 1.37 gr and 2.39 gr and 0.26 gr and 1.90 gr and 1.05 gr and 0.27 gr and 1.92 gr and 0.46 gr and 2.50 gr and 0.74 gr, the Lung weight [1, 3] was 0.11 gr and 0.13 gr (2×) and 0.10 gr and the “Number of intestinal lymph node metastases” value [1, 3] was 0. The “Number of lung metastases (late treatment day 10-14)” value [1, 3] was 0 (4×) and 3 and 77 and 750 and 300 and 4 and 10, the “Vessel density, later start of treatment day 10-14” value [1, 3] was 35 (2×) and 52 and 58 and 43 and 48 and 65 and 53 and the Kidney volume ([1]; Cu(melphalan)2 13.2 μmol/kg (7.5 mg/kg/d) i.p. from Day 10 (planned 10-17, reduced to 10-14)) was 1.96 cm^3 and 3.08 cm^3 and 0.60 cm^3 and 2.60 cm^3 and 1.98 cm^3 and 0.91 cm^3 and 3.06 cm^3 and 1.22 cm^3 and 3.33 cm^3 and 1.68 cm^3. For the same compound, the “antiangiogenic effect (vessel density)” value ([1]; dose of 8.8 μmol/kg, Day 10-14) was “significantly antiangiogenic”, the “anti-metastatic effect, lung metastases and lymph node metastases” value ([1]; dose of 13.2 μmol/kg, Day 10-14) was “significant anti-metastatic effect” and the “anti-tumoral effect against the primary tumor” value ([1]; dose of both 8.8 μmol/kg and 13.2 μmol/kg, Day 10-14) was “significant anti-tumoral effect”. For the same compound, the “effectiveness compared with melphalan (RTV, FIG. 9)” value (OVCAR-3/P19 tumor cells; 7.5 mg/kg copper-melphalan vs 5 mg/kg melphalan i.p.) was “more effective than melphalan”, the “day from which tumor regression began” value (OVCAR-3/P19 tumor cells; 7.5 mg/kg i.p., 10th day of treatment, after 3 days of constant tumor volume) was 30 days and the “mice with tumor regression on day 37” value (OVCAR-3/P19 tumor cells; Gr. 3, 7.5 mg/kg copper-melphalan) was 88%. The “Vol (tumor volume) Day 20” value (OVCAR-3/P19 tumor cells; Gr. 3, 7.5 mg/kg copper-melphalan i.p. days 21-37 every 2nd day, Day 20 = start of treatment (baseline), individual animals) was 0.08 and 0.11 and 0.05 and 0.04 and 0.10 and 0.02 and 0.09 and 0.12, the “RTV (relative tumor volume) Day 20” value (OVCAR-3/P19 tumor cells; Gr. 3, 7.5 mg/kg copper-melphalan i.p., baseline, individual animals) was 1.00 and the “RTV (relative tumor volume) Day 30” value (OVCAR-3/P19 tumor cells; [4]) was 1.63 and 1.36 and 2.20 and 1.75 and 1.90 and 2.50 and 1.78 and 1.83. The “RTV (relative tumor volume) Day 37” value (OVCAR-3/P19 tumor cells; [4]) was 2.78 and 0.63 and 0.43 and 0.78 and 0.67 and 0.70 and 0.60 and 0.51, the “Vol (tumor volume) Day 30” value (OVCAR-3/P19 tumor cells; [4]) was 0.13 and 0.15 and 0.11 and 0.07 and 0.19 and 0.05 and 0.16 and 0.22 and the “Vol (tumor volume) Day 37” value (OVCAR-3/P19 tumor cells; [4]) was 0.05 (3×) and 0.14 and 0.03 and 0.07 and 0.01 and 0.06. The “RTV Day 30, mean” value (OVCAR-3/P19 tumor cells; [5]) was 1.87, the “RTV Day 30, median” value (OVCAR-3/P19 tumor cells; [5]) was 1.81 and the “RTV Day 37, mean” value (OVCAR-3/P19 tumor cells; [5]) was 0.89. For the same compound, the “RTV Day 37, median” value (OVCAR-3/P19 tumor cells; [5]) was 0.65, the “Vol Day 30, mean” value (OVCAR-3/P19 tumor cells; [5]) was 0.14 and the “Vol Day 30, median” value (OVCAR-3/P19 tumor cells; [5]) was 0.14. For the same compound, the “Vol Day 37, mean” value (OVCAR-3/P19 tumor cells; [5]) was 0.06, the “Vol Day 37, median” value (OVCAR-3/P19 tumor cells; [5]) was 0.05 and the “RTV Day 20, mean” value (OVCAR-3/P19 tumor cells; [6]) was 1.00. For the same compound, the “RTV Day 20, median” value (OVCAR-3/P19 tumor cells; [6]) was 1.00, the “Vol Day 20, mean” value (OVCAR-3/P19 tumor cells; [6]) was 0.08 and the “Vol Day 20, median” value (OVCAR-3/P19 tumor cells; [6]) was 0.09. The “RTV Day 30, mean in % of group 2” value (OVCAR-3/P19 tumor cells; [7]) was 82.1%, the “RTV Day 30, median in % of group 2” value (OVCAR-3/P19 tumor cells; [7]) was 76.8% and the “RTV Day 37, mean in % of group 2” value (OVCAR-3/P19 tumor cells; [7]) was 61.3%.
